In patent US20250288645A1, “USE OF GsMTx4 AND GsMTx4 CONJUGATES TO IMPROVE RECOVERY FROM JOINT INJURY” (priority 2023, published 2025):
“Also recorded” adds a separate entry of the source. No end group written: not given here.

Assays:
chondrocytes = experiment: Mechano-vulnerability (impact loading) assay on cartilage of treated ACL-injured mice; format: in vivo, mouse; settings: ACL-I mice, 3 weeks post-ACL-I, versus saline-treated ACL-I mice
Text: OA was induced by a bilateral anterior cruciate ligament-injury (ACL-I) in 8-week-old C57BL/6 mice. Piezo1-labeling intensity in articular chondrocytes and nerves in subchondral bone, the OA severity (OARSI score), the mechano-vulnerability of chondrocytes, and gait parameters was compared among four experimental groups-Control (uninjured), ACL-injured, ACL-injured with saline administration, and ACL-injured with GsMT4 treatment—at 3-weeks post-ACL-I.
FIG. 1E is a diagram showing impact loading applied to cartilage over a portion of a mouse bone as part of an assay for studying the resulting area of chondrocyte death, sometimes referred to a “mechano-death” or “mechano-vulnerability” assay. See, Kotelsky, et al., Osteoarthritis and Cartilage Open, 4 (1): 100227 (2022); doi.org/10.1016/j.ocarto. 2021.100227.
FIG. 2C presents two sets of two photos from animals that have undergone bilateral ACL injury. The animal in the photos in the top row was injected after the injury with saline solution (“ACLL+saline”), while the animal in the bottom row was injected at the same time points post-injury with GsMTx4 (“ACLI+GsMTx4”). The left photos show the amount of dead cells (in red, in the color original, compared to living cells, which have taken up a green label) and after application of a 1 mJ force. FIG. 2D presents a graph showing the results of the studies.

Piezo2 = experiment: Bilateral ACL-injury mouse model: Piezo2 expression in CGRP+ pain nerves; format: in vivo; settings: ACL-I mice, GsMTx4 post-injury, versus saline-treated ACL-I mice
Text: Some of the studies reported below involved a murine model of animals which were subjected to trauma by injuring an ACL (as an exemplar of injury to any of the four knee ligaments). Without wishing to be bound by theory, it is believed that injury to the ACL changes the mechanical loading on the joint, promoting imbalanced metabolism in articular cartilage, and promoting the development of post-traumatic OA, or “PTOA.” Animals were divided into four cohorts: the first group, the controls, were not subjected to trauma, the second group underwent bilateral ACL injury, but no further treatment, the third group underwent bilateral ACL injury, and was then administered saline solution at days 3, 10 and 17 post-injury, and the fourth group underwent bilateral ACL injury, and was then administered GsMTx4 peptide at days 3, 10 and 17 post-injury. The animals were evaluated by gait analysis, a cell vulnerability assay, and a histological evaluation/immunofluorescence assay. In one aspect, the assays compared the expression of Piezo1 and Piezo2 in chondrocytes from injured joints, from uninjured controls, and from injured joints injured and then treated with GsMTx4 and from joints that were injured and then treated only with saline solution. The study also looked at calcitonin gene-related peptide (“CGRP”)-containing (“CGRP^+”) nerve endings. […]

C57BL/6 mice = experiment: Bilateral ACL-injury mouse model: knee histology, OARSI score; format: in vivo
Text: (§1) Some of the studies reported below involved a murine model of animals which were subjected to trauma by injuring an ACL (as an exemplar of injury to any of the four knee ligaments). Without wishing to be bound by theory, it is believed that injury to the ACL changes the mechanical loading on the joint, promoting imbalanced metabolism in articular cartilage, and promoting the development of post-traumatic OA, or “PTOA.” Animals were divided into four cohorts: the first group, the controls, were not subjected to trauma, the second group underwent bilateral ACL injury, but no further treatment, the third group underwent bilateral ACL injury, and was then administered saline solution at days 3, 10 and 17 post-injury, and the fourth group underwent bilateral ACL injury, and was then administered GsMTx4 peptide at days 3, 10 and 17 post-injury. The animals were evaluated by gait analysis, a cell vulnerability assay, and a histological evaluation/immunofluorescence assay. In one aspect, the assays compared the expression of Piezo1 and Piezo2 in chondrocytes from injured joints, from uninjured controls, and from injured joints injured and then treated with GsMTx4 and from joints that were injured and then treated only with saline solution. The study also looked at calcitonin gene-related peptide (“CGRP”)-containing (“CGRP^+”) nerve endings. CGRP^+ nerves have been identified as principal coordinators of thermal and mechanical sensitivity in various pain models. See, e.g., Powell, et al., Nat Commun 12, 5812 (2021); doi.org/10.1038/s41467-021-26100-6.
Experiments were performed in a non-invasive ACL-injury mouse model. […] Both male and female mice were used in the four groups and results were tracked by gender as well as by group.
Animals in the ACL-injury groups were provided with buprenorphine as an analgesic, placed under anesthesia by isoflurane inhalation, and had the injuries induced with a custom-built strain gauge-instrumented device by applying axial force along the femoral shaft until a force drop was felt and a distinct “pop” sound was heard. […]

CGRP^+ pain nerves = experiment: Bilateral ACL-injury mouse model: knee nerve innervation and CGRP+ pain nerves; format: in vivo
Text: as §1

mice = experiment: Gait analysis after bilateral ACL injury; format: in vivo, mouse; settings: weekly subcutaneous injections, after 3 weeks
Method: This Example discusses studies in which mice were first divided into three groups: Group 1, control animals, were not injured, but were injected with GsMTx4, Group 2 mice were given a bilateral ACL injury in their hind legs, and then given weekly subcutaneous injections of saline, and (3) Group 3 mice were given a bilateral ACL injury in their hind legs, and then given weekly subcutaneous injections of GsMTx4.
After 3 weeks, the gait of the animals in each group was studied for the following metrics: hind paw stride length, hind paw average speed, hind paw swing speed, and step cycle.

[1] = ACL-I mice, GsMTx4 post-injury, versus saline-treated ACL-I mice

GsMTx4 (GCLEFWWKCNPNDDKCCRPKLKCSKLFKLCNFSF-NH2; ends and bridges not checked; listed as Grammostola spatulata)
area of chondrocyte death by mechanical impact (chondrocytes): decreased area of chondrocyte death by impact; also recorded: decreased impact-induced mechanical-susceptibility
Piezo2 expression in CGRP^+ pain nerves (Piezo2): decreased Piezo2 expression in CGRP^+ pain nerves
OA severity (OARSI score) (C57BL/6 mice; ACL-I mice, GsMTx4 at days 3, 10, 17 post-injury, 3 weeks post-ACL-I, versus saline-treated ACL-I mice): reduced OARSI score; also recorded: decreased OA degrees significantly
combined OARSI score for the femur and the tibia (FIG. 2B) (C57BL/6 mice; bilateral ACL injury, subcutaneous injection, versus not treated or saline-treated animals): much lower OARSI score
cartilage on femur and tibia (histology, FIG. 2A) (C57BL/6 mice; bilateral ACL injury, versus saline-injected mouse (cartilage severely eroded and disrupted)): still a layer of cartilage almost all of the femur and tibial surface
CGRP^+ pain nerves / CGRP level in injured knee (CGRP^+ pain nerves; [1]): decreased CGRP^+ pain nerves; also recorded: lower levels of CGRP present
nerve innervation in the knee (CGRP^+ pain nerves; [1]): decreased nerve innervation in the knee
pain nerves in the meniscus of the injured joints (CGRP^+ pain nerves; bilateral ACL injury, versus no treatment or saline): reduced the increase of pain nerves in the meniscus
gait (hind paw stride length, hind paw average speed, hind paw swing speed, step cycle; FIG. 3) (mice): the same or almost the same as that of mice that had not had an ACL injured
